In PMC9303458 (Chemmedchem, 2022):
Where two headings read alike, the source gives them in different places.

How the values were obtained:
[1] = dogs, peroral application; cited from earlier work
[2] = Metabolic stability in porcine liver S9 fraction; format: in vitro ADME; conditions: for Porcine liver S9 fraction Stability: percent of parent remaining after 30 min at 37 °C, mean ± SD, n=3
Caco‐2 cell monolayer [3] = assay: Caco‐2 cell permeability
[4] = Metabolic stability in porcine blood plasma; format: in vitro ADME; conditions: for Porcine blood plasma Stability: percent of parent remaining after 30 min at 37 °C, mean ± SD, n=3
[5] = rats, peroral application; cited from earlier work
[6] = Thermodynamic aqueous solubility; format: physicochemical; conditions: PBS pH 7.4, shaken 20 h, 20 °C; mean ± SD
[7] = Chemical stability in aqueous solution; format: physicochemical; conditions: percent of parent remaining after 60 min at 37 °C; mean ± SD, n=3
human recombinant MAGL = target: T1, human recombinant MAGL (Homo sapiens, UniProt Q99685); format: biochemical; conditions: for MAGL inhibition at 10 μM: highest test concentration
T1 sequence (Q99685 1-303): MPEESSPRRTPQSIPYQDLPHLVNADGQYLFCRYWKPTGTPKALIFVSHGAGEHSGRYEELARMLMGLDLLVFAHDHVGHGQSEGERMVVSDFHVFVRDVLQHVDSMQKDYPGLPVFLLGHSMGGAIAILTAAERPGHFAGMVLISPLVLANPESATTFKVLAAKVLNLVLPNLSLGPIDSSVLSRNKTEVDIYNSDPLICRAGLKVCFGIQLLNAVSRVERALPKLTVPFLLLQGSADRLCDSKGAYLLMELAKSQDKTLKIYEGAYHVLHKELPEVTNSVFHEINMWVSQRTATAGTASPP

[8] = target: T2, fatty acid amide hydrolase (FAAH), rat brain homogenate (Rattus norvegicus, UniProt P97612); format: biochemical; conditions: for FAAH inhibition at 10 μM: highest test concentration; for inhibition at 10 µM: read-out: FAAH inhibition at 10 μM, 10 μM, highest test concentration
T2 sequence (P97612 1-579): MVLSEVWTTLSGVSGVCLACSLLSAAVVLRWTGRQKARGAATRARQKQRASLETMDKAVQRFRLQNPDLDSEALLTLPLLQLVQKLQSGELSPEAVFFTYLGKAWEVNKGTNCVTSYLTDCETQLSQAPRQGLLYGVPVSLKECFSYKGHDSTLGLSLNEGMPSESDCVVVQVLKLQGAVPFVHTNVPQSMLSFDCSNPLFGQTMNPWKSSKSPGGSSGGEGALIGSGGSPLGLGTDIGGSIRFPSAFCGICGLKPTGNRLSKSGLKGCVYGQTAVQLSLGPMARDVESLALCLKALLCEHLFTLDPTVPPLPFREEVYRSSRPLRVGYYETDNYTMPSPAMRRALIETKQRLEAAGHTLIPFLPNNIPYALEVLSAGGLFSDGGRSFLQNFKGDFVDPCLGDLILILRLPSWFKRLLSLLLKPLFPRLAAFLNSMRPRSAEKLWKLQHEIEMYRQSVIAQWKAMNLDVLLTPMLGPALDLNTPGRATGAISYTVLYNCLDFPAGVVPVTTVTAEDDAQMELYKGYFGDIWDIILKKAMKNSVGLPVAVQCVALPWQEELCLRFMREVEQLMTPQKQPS

[9] = target: butyrylcholinesterase (BuChE) (Equus caballus, UniProt P81908); assay: Inhibition of BuChE, release of benzoic acid from benzoylcholine; format: biochemical, horse
Caco‐2 cell permeability = conditions: human, Caco-2, pH 7.4
Caco‐2 cell monolayer [10] = conditions: Caco‐2, comparable conditions; cited from earlier work

Chain of butyrylcholinesterase (BuChE) (P81908 whole entry): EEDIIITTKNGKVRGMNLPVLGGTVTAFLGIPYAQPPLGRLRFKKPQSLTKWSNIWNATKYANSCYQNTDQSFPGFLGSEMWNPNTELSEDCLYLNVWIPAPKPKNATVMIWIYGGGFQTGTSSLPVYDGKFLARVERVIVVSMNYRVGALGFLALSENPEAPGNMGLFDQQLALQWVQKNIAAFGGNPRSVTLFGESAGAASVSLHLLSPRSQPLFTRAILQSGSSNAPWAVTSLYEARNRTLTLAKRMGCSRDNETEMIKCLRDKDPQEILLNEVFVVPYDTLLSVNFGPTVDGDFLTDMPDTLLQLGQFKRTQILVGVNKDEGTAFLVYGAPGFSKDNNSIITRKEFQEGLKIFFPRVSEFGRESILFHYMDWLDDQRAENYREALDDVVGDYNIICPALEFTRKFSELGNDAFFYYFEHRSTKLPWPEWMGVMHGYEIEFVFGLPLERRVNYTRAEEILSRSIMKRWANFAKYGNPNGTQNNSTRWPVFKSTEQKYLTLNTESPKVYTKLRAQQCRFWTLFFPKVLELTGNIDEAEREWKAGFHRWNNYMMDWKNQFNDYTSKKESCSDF

O=C(OC(C(F)(F)F)C(F)(F)F)N1CCN(Cc2ccc(C(F)(F)F)cc2N2CCCC2)CC1 [ABX‐1431, reference compound]
Bioavailability [1]: more than 60% | Porcine liver S9 fraction Stability [2]: 81±3% | Permeability coefficient pH 7.4 (Caco‐2 cell monolayer [3]; Caco‐2, 10 μM apical, 2 h, 37 °C, mean ± SD, n=3, n.d.: no permeation detectable): could not be detected | Porcine blood plasma Stability [4]: 95±2% | Bioavailability [5]: more than 60% | Aqueous solubility pH 7.4 [6]: very low solubility | PBS‐buffer pH 7.4 Stability [7]: 90±5%

O=C(NCCCCCn1ccc2ccc(F)cc21)Oc1ccccc1 [Compound 6, phenyl N‐[5‐(6‐fluoroindol‐1‐yl)pentyl]carbamate]
MAGL inhibition at 10 μM (human recombinant MAGL): no inhibition

O=C(NCCCCCn1ccc2ccc(F)cc21)OC(C(F)(F)F)C(F)(F)F [Compound 11, 1,1,1,3,3,3‐Hexafluoropropan‐2‐yl N‐[5‐(6‐fluoroindol‐1‐yl)pentyl]carbamate]
IC50 [8]: 740 nM | Porcine liver S9 fraction Stability [2]: 72±5% | Porcine blood plasma Stability [4]: 86±9% | IC50 [9]: 3500 nM | PBS‐buffer pH 7.4 Stability [7]: 95±4%

O=C(NCCCCCCn1ccc2ccc(F)cc21)OC(C(F)(F)F)C(F)(F)F [Compound 13, 1,1,1,3,3,3‐Hexafluoropropan‐2‐yl N‐[6‐(6‐fluoroindol‐1‐yl)hexyl]carbamate]
IC50 [8]: 770 nM | Porcine liver S9 fraction Stability [2]: 69±5% | Porcine blood plasma Stability [4]: 79±8% | IC50 [9]: 1800 nM | PBS‐buffer pH 7.4 Stability [7]: 95±3%

O=C(NCCCCCCCn1ccc2ccc(F)cc21)OC(C(F)(F)F)C(F)(F)F [Compound 15]
IC50 [8]: 1000 nM

O=C(OC(C(F)(F)F)C(F)(F)F)N1CCC(Cn2ccc3ccc(F)cc32)CC1 [Compound 20, 1,1,1,3,3,3‐Hexafluoropropan‐2‐yl 4‐[(6‐fluoroindol‐1‐yl)methyl]piperidine‐1‐carboxylate]
FAAH inhibition at 10 μM [8]: no inhibitory activity | Porcine liver S9 fraction Stability [2]: 75±3% | Porcine blood plasma Stability [4]: 82±6% | PBS‐buffer pH 7.4 Stability [7]: > 95%

O=C(OC(C(F)(F)F)C(F)(F)F)N1CCC(CCn2ccc3ccc(F)cc32)CC1 [Compound 24, 1,1,1,3,3,3‐Hexafluoropropan‐2‐yl 4‐[2‐(6‐fluoroindol‐1‐yl)ethyl]piperidine‐1‐carboxylate]
IC50 [8]: 1000 nM | Porcine liver S9 fraction Stability [2]: 68±7% | Porcine blood plasma Stability [4]: 86±7% | PBS‐buffer pH 7.4 Stability [7]: 93±1%

O=C(OC(C(F)(F)F)C(F)(F)F)N1CCC(CCCn2ccc3ccc(F)cc32)CC1 [Compound 28]
IC50 [8]: 6300 nM

O=C(OC(C(F)(F)F)C(F)(F)F)N1CCC(CCCCn2ccc3ccc(F)cc32)CC1 [Compound 32]
IC50 [8]: 2800 nM

CN(CCCCCn1ccc2ccc(F)cc21)C(=O)OC(C(F)(F)F)C(F)(F)F [Compound 35, 1,1,1,3,3,3‐Hexafluoropropan‐2‐yl N‐methyl‐N‐[5‐(6‐fluoroindol‐1‐yl)pentyl]carbamate]
inhibition at 10 µM (human recombinant MAGL; read-out: MAGL inhibition at 10 μM): ~30% | inhibition at 10 µM [8]: ~30%

CCN(CCCCCn1ccc2ccc(F)cc21)C(=O)OC(C(F)(F)F)C(F)(F)F [Compound 38, 1,1,1,3,3,3‐Hexafluoropropan‐2‐yl N‐ethyl‐N‐[5‐(6‐fluoroindol‐1‐yl)pentyl]carbamate]
MAGL inhibition at 10 μM (human recombinant MAGL): inactive | FAAH inhibition at 10 μM [8]: inactive

CC(C)N(CCCCCn1ccc2ccc(F)cc21)C(=O)OC(C(F)(F)F)C(F)(F)F [Compound 40]
MAGL inhibition at 10 μM (human recombinant MAGL): inactive | FAAH inhibition at 10 μM [8]: inactive

O=C(OC(C(F)(F)F)C(F)(F)F)N(CCCCCn1ccc2ccc(F)cc21)C1CC1 [Compound 42]
MAGL inhibition at 10 μM (human recombinant MAGL): inactive | FAAH inhibition at 10 μM [8]: inactive

O=C(OC(C(F)(F)F)C(F)(F)F)N1CCC(Cn2ccc3ccccc32)CC1 [Compound 45]
FAAH inhibition at 10 μM [8]: no inhibitory activity

O=C(OC(C(F)(F)F)C(F)(F)F)N1CCC(Cn2ccc3c(F)cccc32)CC1 [Compound 48]
FAAH inhibition at 10 μM [8]: no inhibitory activity

O=C(OC(C(F)(F)F)C(F)(F)F)N1CCC(Cn2ccc3cccc(F)c32)CC1 [Compound 54]
FAAH inhibition at 10 μM [8]: no inhibitory activity

Cc1ccc2c(ccn2CC2CCN(C(=O)OC(C(F)(F)F)C(F)(F)F)CC2)c1 [Compound 57]
IC50 [8]: > 10000 nM | inhibition at 10 µM [8]: ~25%

COc1ccc2c(ccn2CC2CCN(C(=O)OC(C(F)(F)F)C(F)(F)F)CC2)c1 [Compound 60]
IC50 [8]: > 10000 nM | inhibition at 10 µM [8]: ~25%

N#Cc1ccc2c(ccn2CC2CCN(C(=O)OC(C(F)(F)F)C(F)(F)F)CC2)c1 [Compound 63]
IC50 [8]: > 10000 nM | inhibition at 10 µM [8]: ~25%

O=C(OC(C(F)(F)F)C(F)(F)F)N1CCC(CCn2ccc3ccccc32)CC1 [Compound 66]
IC50 [8]: 2100 nM

O=C(OC(C(F)(F)F)C(F)(F)F)N1CCC(CCn2ccc3c(F)cccc32)CC1 [Compound 69]
IC50 [8]: 2500 nM

O=C(OC(C(F)(F)F)C(F)(F)F)N1CCC(CCn2ccc3cc(F)ccc32)CC1 [Compound 72]
IC50 [8]: 2800 nM

O=C(OC(C(F)(F)F)C(F)(F)F)N1CCC(CCn2ccc3cccc(F)c32)CC1 [Compound 75]
IC50 [8]: 1200 nM

O=C(OC(C(F)(F)F)C(F)(F)F)N1CCC(CCn2ccc3cc(Cl)ccc32)CC1 [Compound 78]
IC50 [8]: 7500 nM

Cc1ccc2c(ccn2CCC2CCN(C(=O)OC(C(F)(F)F)C(F)(F)F)CC2)c1 [Compound 81]
IC50 [8]: > 10000 nM

COc1ccc2c(ccn2CCC2CCN(C(=O)OC(C(F)(F)F)C(F)(F)F)CC2)c1 [Compound 84]
IC50 [8]: 8300 nM

N#Cc1ccc2c(ccn2CCC2CCN(C(=O)OC(C(F)(F)F)C(F)(F)F)CC2)c1 [Compound 87]
IC50 [8]: > 10000 nM

O=C(OC(C(F)(F)F)C(F)(F)F)N1CCN(CCn2ccc3ccc(F)cc32)CC1 [Compound 92, 1,1,1,3,3,3‐Hexafluoropropan‐2‐yl 4‐[2‐(6‐fluoroindol‐1‐yl)ethyl]piperazine‐1‐carboxylate]
Decrease of activity towards MAGL relative to lead structure 24 (factor) (human recombinant MAGL; ratio of IC50 values): about 1.5 | IC50 [8]: 2600 nM | Decrease of activity towards FAAH relative to lead structure 24 (factor) ([8]; ratio of IC50 values): ~2.5

O=C(OC(C(F)(F)F)C(F)(F)F)N1CCC(CCn2cnc3ccccc32)CC1 [Compound 101, 1,1,1,3,3,3‐Hexafluoropropan‐2‐yl 4‐[2‐(benzimidazol‐1‐yl)ethyl]piperidine‐1‐carboxylate]
IC50 [8]: 1000 nM | Porcine liver S9 fraction Stability [2]: 82±7% | Papp A→B at 2 h, 10 µM (Caco‐2 cell permeability): 12.6 ± 1 ×10⁻⁶ cm/s | Porcine blood plasma Stability [4]: 93±5% | Aqueous solubility pH 7.4 [6]: 6.1±0.5 μg/mL | PBS‐buffer pH 7.4 Stability [7]: > 95%

O=C(OC(C(F)(F)F)C(F)(F)F)N1CCC(CCn2nnc3ccccc32)CC1 [Compound 104]
IC50 [8]: > 10000 nM

O=C(OC(C(F)(F)F)C(F)(F)F)N1CCC(Cn2cnc3ccccc32)CC1 [Compound 122]
FAAH inhibition at 10 μM [8]: ineffective

O=C(OC(C(F)(F)F)C(F)(F)F)N1CCC(Cn2ccc3cccnc32)CC1 [Compound 125, 1,1,1,3,3,3‐Hexafluoropropan‐2‐yl 4‐[(7‐azaindol‐1‐yl)methyl]piperidine‐1‐carboxylate]
FAAH inhibition at 10 μM [8]: ineffective | Porcine liver S9 fraction Stability [2]: 75±8% | Papp A→B at 2 h, 10 µM (Caco‐2 cell permeability): 10 ×10⁻⁶ cm/s | Porcine blood plasma Stability [4]: 79±6% | PBS‐buffer pH 7.4 Stability [7]: 92±7%

NC(=O)c1cccc(-c2cccc(OC(=O)NC3CCCCC3)c2)c1 [URB597, reference compound]
Porcine liver S9 fraction Stability [2]: 80±4% | PBS‐buffer pH 7.4 Stability [7]: > 95%

COc1ccc2c(c1)c(CC(=O)O)c(C)n2C(=O)c1ccc(Cl)cc1 [indomethacin, reference compound]
Recovery of test compound at the end of the Caco‐2 experiment (Caco‐2 cell monolayer [3]; sum of apical and basolateral compartments after 2 h): quantitative | Permeability coefficient, literature value (Caco‐2 cell monolayer [10]): 2.04e-05 cm/s

CCCc1nc(C(C)(C)O)c(C(=O)OCc2oc(=O)oc2C)n1Cc1ccc(-c2ccccc2-c2nnn[nH]2)cc1 [olmesartan medoxomil, reference compound]
Hydrolysis in porcine blood plasma ([4]; under the conditions of the stability assay): almost quantitatively hydrolyzed

CCOC(=O)C1=C[C@@H](OC(CC)CC)[C@H](NC(C)=O)[C@@H](N)C1 [oseltamivir, reference compound]
Degradation in porcine liver homogenate ([2]; percent degraded under the conditions of the stability assay): approximately 90%
